Test system: CD4+CD25− T cells (Teff)
Assay: CFSE-based polyclonal suppression assay (aTreg:Teff co-culture 1:4, anti-CD3/anti-CD28 beads)
Format: cell-based, human
Settings: for percent inhibition (Treg-mediated suppression of Teff proliferation): presence vs absence of STAT3 inhibitor, 200 ng/ml for one hour
Procedure: The level of Teff suppression was measured using an in vitro assay in which the CD4^+CD25^− T cells of patients with RRMS were co-cultured with in vitro generated Treg from healthy subjects at a Treg to Teff ratio of 1:4 in the presence of anti-CD3/anti-CD28 coated beads and where proliferation is measured using CFSE.
FIGS. 5A, 5B, and 5C relate to a gating strategy for calculation of percent inhibition in a suppression assay and a cytometric analysis of phosphorylated STAT3 and IL-6Rα surface expression. Referring to FIG. 5A, FACS analysis was performed on day 4 by gating on live cells and excluding the CFSE low population (unstained Treg) to determine the percent of the responder cells that have diluted CFSE. The percent inhibition was determined by comparing the percent of proliferating Teff cells cultured alone to the percent of proliferating Teff cells in co-culture with in vitro generated Treg at a ratio 1:4 (Treg:responder cells).
IL-6 mediated Teff resistance can be reversed through the use of a STAT3 inhibitor (Goodman, W. A., et al., J. Immunol. 186(6), 3336-3345 (2011)). […] Suppression assays were performed in the presence of the STAT3 inhibitor using the same source of control Treg for RRMS and control Teff cells. In FIG. 2D, the percent inhibition for controls (n=3) and RRMS (n=3) subjects in the presence or absence of a STAT3 inhibitor, STATTIC V, was compared using a paired Student t-test.
To determine whether IL-6R mediated signaling could alter suppression in the assay system, Teff were cultured from healthy subjects in the presence or absence of IL-6 in the in vitro co-culture system and assessed percent inhibition on day 4. […] Referring to FIG. 11, CFSE-labeled CD4^+CD25^− T cells were cultured at a ratio of 1:4 (control aTreg:control Teff) either in the absence or presence of 50 ng/ml IL-6 and activated with anti-CD3/anti-CD28 coated beads. FACS analysis was performed to determine percent inhibition on day 4 and data is represented by using a paired analysis (Correlation coefficient (r) 0.8934).
CD4^+CD25^− responder cells were isolated as described above via negative selection using Miltenyi microbeads. Allogeneic CD4^+CD25^− T cells were carboxyfluorescein succinimidyl ester (CFSE)-labelled and cultured at a ratio of 1:4 with aTregs and Dynabeads® (M-450 CD3/CD28 T, Dynal Biotech A.S.A./Life Technologies Corporation, Grand Island, N.Y.) at a ratio of 1:5 (beads:responder cells) as described previously (Schneider, A., and Buckner, J. H., Methods Mol. Biol. 707, 233-241 (2011)). […] Data was acquired using CellQuest™ Pro software (BD Bioscience) and analyzed by FlowJo (Tree Star).

Compound: O=[N+]([O-])c1ccc2c(c1)S(=O)(=O)C=C2 [STATTIC V]
- percent inhibition (Treg-mediated suppression of Teff proliferation) (RRMS subjects' Teff (n=3), day 4, p<0.01, FIG. 2D): more marked increase in suppression
- percent inhibition (Treg-mediated suppression of Teff proliferation) (control subjects' Teff (n=3), day 4, FIG. 2D): enhanced suppression

Compound: IL-6: recombinant human IL-6 from BD Pharmingen, pro-inflammatory cytokine
- suppression by Treg (percent inhibition) (control aTreg:control Teff 1:4, absence vs presence of 50 ng/ml IL-6, day 4, p=0.02, FIG. 11): significantly decreased
- proliferation of Teff (cultures with Teff alone, healthy subjects, absence vs presence of 50 ng/ml IL-6): unaffected
